Data from article PMC7557582, “Broad-Spectrum Antimicrobial Activity and Improved Stability of a D-Amino Acid Enantiomer of DMPC-10A, the Designed Derivative of Dermaseptin Truncates” (Antibiotics, 2020).
Converted amounts (≈) assume the structure as drawn. Non-standard residues stand in square brackets, D forms with d. Residues, ends and D or L forms follow the SMILES beside them. Cha = N[C@@H](CC1CCCCC1)C(=O)O

Legend:
trypsin = molecular target: T1, trypsin (Bos taurus, UniProt P00760); test: Enzyme stability assay, trypsin; assay type: in vitro ADME; settings: peptide in PBS, peptide:trypsin 100:1 (m/m), time points 0-120 min, stopped with 10% TFA, RP-HPLC peak area, three replicates
T1 construct: gene PRSS1
T1 sequence (P00760 24-246): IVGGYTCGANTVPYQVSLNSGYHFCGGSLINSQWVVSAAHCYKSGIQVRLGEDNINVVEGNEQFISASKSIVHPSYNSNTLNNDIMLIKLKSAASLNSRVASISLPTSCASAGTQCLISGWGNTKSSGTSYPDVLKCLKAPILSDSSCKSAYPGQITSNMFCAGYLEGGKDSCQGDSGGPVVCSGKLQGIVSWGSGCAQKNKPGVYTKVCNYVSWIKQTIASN
Protocol: (§1) The peptides were dissolved in phosphate-buffered saline (PBS) and mixed with the respective enzyme (trypsin and chymotrypsin) with a ratio of 100:1 (m/m). Then, 135 µl of the reaction solution was transferred into a new vial. The hydrolysis reaction was immediately terminated by adding 15 µl of 10% TFA at the different time points (0, 5, 10, 20, 40, 60, 120 min). The mixture was then analyzed by reverse-phase HPLC and respective peak areas were calculated to obtain the residual amount of peptides at different times.

[1] = system: MRSA (NCTC 12493) biofilm; test: Inhibition of biofilm formation (crystal violet); assay type: cell-based, methicillin-resistant S. aureus; settings: 37 °C 24–48 h, crystal violet 595 nm
Protocol: (§2) The antibiofilm activity of synthetic peptides was evaluated via the inhibitory effect against the formation of biofilm and the eradication of mature biofilm, which were performed as the previously study with minor modifications. […] Then, the solution in each well was discarded. The biofilm was washed with PBS. Finally, the biofilm in each well was stained by 100 μL of 0.1% crystal violet solution and further dissolved by 30% acetic acid. The absorbance of dissolved crystal violet in each well was recorded at 595 nm. For the eradication of mature biofilm, biofilm was formed with incubation at 37 °C for 24–48 h. Then, the plate was washed with PBS and filled with the peptides which were prepared in the fresh medium. After treatment for 24 h at 37 °C, the plate was stained as mentioned above. Both assays were repeated three times, with 5 replicates each time.

E. faecalis (NCTC 12697) = assay type: cell-based, Enterococcus faecalis
Protocol: (§6) Gram-positive bacteria Staphylococcus aureus (NCTC 10788) and Enterococcus faecalis (NCTC 12697) and Gram-negative bacteria Escherichia coli (NCTC 10418), Pseudomonas aeruginosa (ATCC 27853), and Klebsiella pneumoniae (ATCC 43816) were tested. […] All the bacterial strains were inoculated in Mueller Hinton broth (MHB), pH 7.4 (Oxiod, Basingstoke, UK) at 37 °C. Then, the log-phase bacteria were mixed with the peptide at the concentrations from 512 to 1 µM in two-fold dilution, in a 96 well-plate. The wells contained sterilized MHB and bacteria cultures were employed as a blank and growth control, respectively.

[2] = system: MRSA (NCTC 12493) biofilm; test: Eradication of mature biofilm (crystal violet); assay type: cell-based, methicillin-resistant S. aureus; settings: high concentrations ranging from 32 to 128 µM, 24 h treatment at 37 °C
Protocol: as §2

E. coli (NCTC 10418) [3] = assay type: cell-based, Escherichia coli
Protocol: as §6

[4] = system: K. pneumoniae (ATCC BAA 1705); assay type: cell-based, Klebsiella pneumoniae
Protocol: as §6

S. aureus (NCTC 10788) [5] = assay type: cell-based, Staphylococcus aureus
Protocol: as §6

[6] = system: Galleria mellonella larvae infected with K. pneumoniae (ATCC 43816); test: Galleria mellonella larva infection model; assay type: in vivo; settings: 20 mg/kg injected 1 h after infection, 5 days, 10 larvae per group
Protocol: The assessment of in vivo antimicrobial activity of DMPC-10B was performed using the larva of Galleria mellonella, as in the previous study, with minor modifications. The infection model was constructed by injecting 10 μL of MRSA (NCTC 12493) and K. pneumoniae (ATCC 43816) bacteria suspension (5 × 10^7 CFU/mL) which was prepared in PBS. After 1 h, each infected larva was further administered an injection of 10 μL of peptide solution at different doses of 5, 10, 20 mg/kg. The infected larva that was administered 10 μL of PBS was employed as a negative control, while 20 mg/kg of gentamicin was used as a positive control. Each group contained 10 larvae and all larvae were inspected every 24 h for 5 days (the first day was 12 h).

[7] = system: healthy Galleria mellonella larvae; test: Toxicity to larvae without infection; assay type: in vivo; settings: highest dose (20 mg/kg), 5 days
chymotrypsin = chymotrypsin (Bos taurus, UniProt P00766); test: Enzyme stability assay, chymotrypsin; assay type: in vitro ADME; settings: peptide in PBS, peptide:chymotrypsin 100:1 (m/m)
Protocol: as §1

[8] = system: K. pneumoniae (ATCC BAA 2342); test: Checkerboard synergy assay; assay type: cell-based, Klebsiella pneumoniae
Protocol: (§3) The bacteria culture was prepared and diluted as performed in Section 4.4. Then, the bacteria dilution was mixed with a different combination of DMPC-10B and the antibiotics in the 96-well plate. The wells only contained individual peptides or antibiotics were applied as reference controls. Similarly, the turbidity of each well in the plate was measured at OD 550 nm, after incubation at 37 °C for 24 h. The fractional inhibitory concentration index (FICI) of each combination was defined as follows: FICI=MIC of DMPC-10B in combination/MIC of DMPC-10B alone+MIC of antibiotic in combination/MIC of antibiotic alone
(§4) The profile of the combination was interpreted as synergistic, additive, and antagonistic for FICI ≤ 0.5, 0.5 < FICI ≤ 4.0, and FICI > 4.0, respectively.

[9] = system: K. pneumoniae (ATCC BAA 1705); test: Checkerboard synergy assay; assay type: cell-based, Klebsiella pneumoniae
Protocol: as §3, §4

[10] = system: P. aeruginosa (ATCC 27853); assay type: cell-based, Pseudomonas aeruginosa
Protocol: as §6

[11] = system: K. pneumoniae (ATCC BAA 2342); assay type: cell-based, Klebsiella pneumoniae
Protocol: as §6

[12] = system: K. pneumoniae (ATCC 43816) biofilm; test: Eradication of mature biofilm (crystal violet); assay type: cell-based, Klebsiella pneumoniae; settings: at 64 µM and 128 µM, compared with S. aureus and MRSA
Protocol: as §2

[13] = system: S. aureus (NCTC 10788) biofilm; test: Eradication of mature biofilm (crystal violet); assay type: cell-based, Staphylococcus aureus; settings: high concentrations ranging from 32 to 128 µM, 24 h treatment at 37 °C
Protocol: as §2

[14] = system: K. pneumoniae (ATCC 43816) biofilm; test: Inhibition of biofilm formation (crystal violet); assay type: cell-based, Klebsiella pneumoniae; settings: 37 °C 24–48 h, crystal violet 595 nm
Protocol: as §2

[15] = system: S. aureus (NCTC 10788) biofilm; test: Inhibition of biofilm formation (crystal violet); assay type: cell-based, Staphylococcus aureus; settings: 37 °C 24–48 h, crystal violet 595 nm
Protocol: as §2

S. aureus (NCTC 10788) [16] = assay type: cell-based, Staphylococcus aureus; remark: listed apart in the source
Protocol: (§5) Furthermore, the antimicrobial activity in the presence of MgCl2, CaCl2, NaCl and 10% fetal bovine serum (FBS) was investigated. In detail, 2 and 5 mM of MgCl2 and CaCl2, and 150 and 375 mM NaCl, were applied, respectively. The supplements were added into the medium that was used for diluting the bacteria suspension. Then, the diluted bacteria culture was mixed with the peptide stock solution in the 96-well plate, as mentioned above. The assay was performed three times and each assay contained 5 replicates.

[17] = system: K. pneumoniae (ATCC 43816); assay type: cell-based, Klebsiella pneumoniae
Protocol: as §6

E. coli (NCTC 10418) [18] = assay type: cell-based, Escherichia coli; remark: listed apart in the source
Protocol: as §5

MRSA (NCTC 12493) = assay type: cell-based, methicillin-resistant S. aureus
Protocol: as §6

SMILES: CC(C)C[C@@H](NC(=O)[C@H](C)N)C(=O)N[C@@H](Cc1c[nH]c2ccccc12)C(=O)N[C@H](CCCCN)C(=O)N[C@H](CCCCN)C(=O)N[C@H](CC(C)C)C(=O)N[C@H](CC(C)C)C(=O)N[C@H](CCCCN)C(=O)N[C@H](CCCCN)C(=O)N[C@@H](CC1CCCCC1)C(N)=O [DMPC-10B] (H-A[dL]W[dK][dK][dL][dL][dK][dK][Cha]-NH2; N-terminus assumed)
- time within which trypsin could not degrade the peptide completely (trypsin): > 2 h
- inhibition of biofilm formation [1]: effectively inhibited
- MBC (E. faecalis (NCTC 12697); NCTC 12697, pH 7.4): 64 µM (≈ 81.9 µg/mL)
- MIC (E. faecalis (NCTC 12697); NCTC 12697, pH 7.4): 64 µM (≈ 81.9 µg/mL)
- biofilm eradication effect [2]: around 50%
- MBC (E. coli (NCTC 10418) [3]; NCTC 10418, pH 7.4): 4 µM (≈ 5.12 µg/mL)
- MIC (E. coli (NCTC 10418) [3]; NCTC 10418, pH 7.4): 2 µM (≈ 2.56 µg/mL)
- MBC ([4]; ATCC BAA 1705, pH 7.4): 32 µM (≈ 41 µg/mL)
- MIC ([4]; ATCC BAA 1705, pH 7.4): 32 µM (≈ 41 µg/mL)
- MBC (S. aureus (NCTC 10788) [5]; NCTC 10788, pH 7.4): 16 µM (≈ 20.5 µg/mL)
- MIC (S. aureus (NCTC 10788) [5]; NCTC 10788, pH 7.4): 4 µM (≈ 5.12 µg/mL)
- survival of infected larvae [6]: around 70%
- death of healthy larvae [7]: did not induce any death
- stability to hydrolysis by chymotrypsin (chymotrypsin; 120 min, RP-HPLC peak area, three replicates): exhibited resistance to the hydrolysis
- time within which L-Trp site was not cleaved by chymotrypsin (chymotrypsin; RP-HPLC): > 2 h
- combined MIC of DMPC-10B with norfloxacin ([8]; first value): 16/16
- individual MIC of DMPC-10B (norfloxacin checkerboard) ([8]; second value): 16/16
- combined MIC of DMPC-10B with norfloxacin ([9]; first value): 32/32
- individual MIC of DMPC-10B (norfloxacin checkerboard) ([9]; second value): 32/32
- MBC ([10]; ATCC 27853, pH 7.4): 32 µM (≈ 41 µg/mL)
- MIC ([10]; ATCC 27853, pH 7.4): 4 µM (≈ 5.12 µg/mL)
- MBC ([11]; ATCC BAA 2342, pH 7.4): 16 µM (≈ 20.5 µg/mL)
- MIC ([11]; ATCC BAA 2342, pH 7.4): 16 µM (≈ 20.5 µg/mL)
- biofilm eradication effect [12]: more potent effects
- biofilm eradication effect [13]: around 50%
- inhibition of biofilm formation [14]: less potent
- inhibition of biofilm formation [15]: effectively inhibited
- MIC with CaCl2 5 mM (S. aureus (NCTC 10788) [16]): 64 µM
- MIC with FBS 10% (S. aureus (NCTC 10788) [16]): 8 µM
- MIC with MgCl2 5 mM (S. aureus (NCTC 10788) [16]): 64 µM
- MIC with NaCl 150 mM (S. aureus (NCTC 10788) [16]): 64 µM
- MIC with NaCl 375 mM (S. aureus (NCTC 10788) [16]): 128 µM
- MIC, no additive (S. aureus (NCTC 10788) [16]): 4 µM (≈ 5.12 µg/mL)
- MBC ([17]; ATCC 43816, pH 7.4): 8 µM (≈ 10.2 µg/mL)
- MIC ([17]; ATCC 43816, pH 7.4): 8 µM (≈ 10.2 µg/mL)
- MIC with CaCl2 5 mM (E. coli (NCTC 10418) [18]): 32 µM
- MIC with FBS 10% (E. coli (NCTC 10418) [18]): 4 µM
- MIC with MgCl2 5 mM (E. coli (NCTC 10418) [18]): 32 µM
- MIC with NaCl 150 mM (E. coli (NCTC 10418) [18]): 16 µM
- MIC with NaCl 375 mM (E. coli (NCTC 10418) [18]): 32 µM
- MIC, no additive (E. coli (NCTC 10418) [18]): 2 µM (≈ 2.56 µg/mL)
- MBC (MRSA (NCTC 12493); NCTC 12493, pH 7.4): 8 µM (≈ 10.2 µg/mL)
- MIC (MRSA (NCTC 12493); NCTC 12493, pH 7.4): 4 µM (≈ 5.12 µg/mL)

SMILES: CNC(C)C1CCC(N)C(OC2C(N)CC(N)C(OC3OCC(C)(O)C(NC)C3O)C2O)O1 (stereo not drawn) [Gentamicin, reference compound]
- MIC of antibiotic (E. faecalis (NCTC 12697); E. faecalis (NCTC 12697), broth-dilution, MHB pH 7.4, 37 °C, positive control): 4/8.38 µg/mL
- MIC of antibiotic (E. coli (NCTC 10418) [3]; E. coli (NCTC 10418), broth-dilution, MHB pH 7.4, 37 °C, positive control): 1/2.09 µg/mL
- MIC of antibiotic ([4]; K. pneumoniae (ATCC BAA 1705), broth-dilution, MHB pH 7.4, 37 °C, positive control): 2/4.19 µg/mL
- MIC of antibiotic (S. aureus (NCTC 10788) [5]; S. aureus (NCTC 10788), broth-dilution, MHB pH 7.4, 37 °C, positive control): <0.0625/<0.13 µg/mL
- MIC of antibiotic ([10]; P. aeruginosa (ATCC 27853), broth-dilution, MHB pH 7.4, 37 °C, positive control): 0.25/0.52 µg/mL
- MIC of antibiotic ([11]; K. pneumoniae (ATCC BAA 2342), broth-dilution, MHB pH 7.4, 37 °C, positive control): 4/8.38 µg/mL
- MIC of antibiotic ([17]; K. pneumoniae (ATCC 43816), broth-dilution, MHB pH 7.4, 37 °C, positive control): 1/2.09 µg/mL
- MIC of antibiotic (MRSA (NCTC 12493); MRSA (NCTC 12493), broth-dilution, MHB pH 7.4, 37 °C, positive control): 0.125/0.26 µg/mL
